Consider four compounds from article PMC8152814, “The modulatory role of sulfated and non-sulfated small molecule heparan sulfate-glycomimetics in endothelial dysfunction: absolute structural clarification, molecular docking and simulated dynamics, SAR analyses and ADMET studies” (RSC Medicinal Chemistry, 2021).

Each structure is given as a SMILES string.

Data set [1] is described as follows: Microsomal metabolic stability, mouse liver microsomes. Conditions: liver microsomes (pooled), pH 7.4.
Procedure: MLM assay (controls: diphenhydramine and diazepam). hERG assay (controls: quinidine and dimethylsulfoxide).
Pooled liver microsomes (final protein concentration 0.5 mg/mL), 0.1 M phosphate buffer pH
7.4 and test compound (final substrate concentration 3 µM; final DMSO concentration 0.25 %)
are pre-incubated at 37 °C prior to the addition of NADPH (final concentration 1 mM) to initiate
included for each compound tested where 0.1 M phosphate buffer pH 7.4 is added instead of
are stopped by transferring 20 µL of incubate to 60 µL methanol at the appropriate time points.
The termination plates are centrifuged at 2,500 rpm for 20 min at 4 °C to precipitate the protein.
Following protein precipitation, the sample supernatants are combined in cassettes of up to 4
compounds, internal standard is added and samples analysed using Cyprotex generic
LC-MS/MS conditions. From a plot of ln peak area ratio (compound peak area /internal
standard peak area) against time, the gradient of the line is determined. Subsequently, half-
life and intrinsic clearance are calculated using the equations below:
Relevant control compounds are assessed, ensuring intrinsic clearance values fall within the
Data set [2] can be described thus: Microsomal metabolic stability, rat liver microsomes. It is filed as in vitro ADME. Conditions: liver microsomes (pooled); for microsomal CLint at 3 µM / microsomal CLint at 0.75 h, 3 µM: pH 7.4; for half-life at 3 µM / half-life at 0.75 h, 3 µM: pH 7.4, 3 µM, 0.5 mg/mL protein, read-out: RLM t1/2. How it is done:
Microsomal Metabolic Stability […]
the reaction. The final incubation volume is 50 µL. A minus cofactor control incubation is […]
NADPH (minus NADPH). Two control compounds are included with each species. All incubations are performed singularly for each test compound. Each compound is incubated for 0, 5, 15, 30 and 45 min. The control (minus NADPH) is incubated for 45 min. The reactions […]
Elimination rate constant (k) = (- gradient)
Intrinsic clearance (CLint)(µL/min/mg protein) = where V = Incubation volume (µL)/Microsomal protein (mg) […]
specified limits (if available).
(Molecular Devices LLC), which simultaneously performs electrophysiology measurements for […]
All cell suspensions, buffers and […]
(Liver microsomes are vesicles of endoplasmic reticulum, rich in cytochrome P450 enzymes.)

The subject of data set [3] is reactive oxygen species (ROS). The data set can be described thus: ROS production in FFA-stressed cells. It is filed as cell-based, human. The following applies: averaged % of increase (+) or decrease (−) compared to control (FFA induced oxidatively stressed endothelial cells), n = 3. The source says: (§1) The assays focused on the production of nitric oxide (NO) and the upregulation of nitric oxide synthase (eNOS), the production of reactive oxygen species (ROS) and the activity of nicotinamide adenine dinucleotide phosphate (NADPH) oxidase (Table 2). From the hypothesised model of heparan sulfate-glycomimetic activity,[17] the glycomimetics are proposed to attenuate the binding of HGF to the cMET receptor. This disruption to MET-receptor activation is proposed to modulate intracellular phosphorylation leading to an upregulation of eNOS and increased output of extracellular NO. […] Overall, the cross examination of NO output and reduction of ROS was used to determine the therapeutic action of the triaged glycomimetics α-4, R-10, S-10 and β-5, as well as 3 non-sulfated intermediates α-2, α-3 and β-3, on free fatty acid (FFA) induced, oxidatively stressed endothelial cell cultures (Table 2).
(§2) Biological assay and AMDET experimental details […]
(§3) Preparation of FFA-albumin complexes and cell treatments
(§4) To generate the in vitro model of oxidative stress, sodium palmitate was bound to bovine serum albumin (BSA) as outlined by Chavez and Summers,S2 with modifications. Sodium palmitate (FFA) was dissolved in EtOH at 60 °C and diluted 1:100 in M199 media supplemented with 2% fatty acid-free bovine serum albumin (BSA) and incubated for 1 h at 37 °C. HepG2 cells were treated with 1 μmol/L of the synthesized HS-glycomimetics in the presence of palmitate (100 μmol/L) for 3 h or pre-treated with glycomimetics for 12 h followed by 3 h palmitate (100 μmol/L). Control cells were incubated in serum free M199 containing 2% (wt/vol) fatty acid-free BSA.
NO release assay and Quantification of ROS production […]
The auto-fluorescence was subtracted from each value. Cells were incubated with 10 μmol/L of the fluorescent probe: 2′-7′-dichlorodihydrofluorescein diacetate (CM-H2DCFDA, Sigma) for 30 min at 37 °C, and the level of fluorescence was determined (excitation 490 nm; emission 540 nm) using a microplate reader (BioTek).
The level of NADPH-enhanced superoxide anions (O2•−) in HepG2 homogenates was determined by lucigenin-enhanced chemiluminescence.S4 Following the various treatment conditions, cells were homogenized in a buffer (20 mmol/L H2KPO4 and 1 mmol/L EDTA supplemented with aprotinin, leuprotinin, pepstatin and PMSF). The total protein quantified using the Bicinchoninic acid (BCA) assay (Pierce Biotechnology). To 50 μg of total protein, NADPH (100 μmol/L) was added in a total volume of 500 μL, with lucigenin (5 μmol/L) and was injected automatically. Activity was determined by measuring luminescence over 200 s in a scintillation counter (Lumat LB 9507, Berthold, Germany). Basal values of NADPH oxidase activity were subtracted from the experimental values and expressed as RLU/min/μg protein […]
In situ quantification of ROS species
Superoxide dismutase (SOD) and catalase (CAT) activity assays, and in situ detection of vascular ROS content. The activity of the enzymes, SOD and CAT, was determined in cell homogenates using assay kits according to the manufacturer's instructions (Cayman; Cat No 706002 and 707002 respectively). A unit of SOD was defined as the amount of enzyme […]
Similarly, a unit of CAT was […]
defined as the amount required to form 1.0 nmol of formaldehyde per min at 25 °C.S5 […]
HepG2 cells were incubated in serum-free DMEM containing 2% fatty acid-free BSA (control) or palmitate conjugated BSA (100 μmol/L) in the presence of HS-glycomimetics (1 or 10 μmol/L) for 24 h. The cells were incubated for 30 min in Hepes-buffered solution containing 10 μmol/L dihydroethidium (DHE), which intercalates with DNA in the presence of ROS and is detectable by fluorescence. Cells were counterstained with the nuclear stain DAPI at 0.3 μmol/L. In the following 24 h, the cell cultures were examined using a fluorescence microscope (Leica DMIRB). Sections were photographed and fluorescence was quantified using ImageJ. […]

The next data set deals with eNOS. The data set can be described thus: eNOS phosphorylation (Western blot) in FFA-stressed cells. The format is cell-based, human. The following applies: averaged % of increase (+) or decrease (−) compared to control (FFA induced oxidatively stressed endothelial cells), n = 3.
Excerpt: as §1, §2, §3
as §4, with “BSA. […]” for “BSA.”
HepG2 wells were lysed in RIPA buffer containing proteinase inhibitors and the total protein was quantified using BCA protein assay kit (Pierce Biotechnology). Proteins (30 μg/well) were denatured and separated by sodium dodecyl sulfate (SDS)-polyacrylamide gel electrophoresis and transferred to polyvinylidene difluoride (PVDF) membranes. Blots were blocked for 1 h in 5% semi-skimmed milk/Tris-Buffered Saline Tween-20 (TBS-T), probed with primary rabbit anti-phospho-protein kinase B (Akt), rabbit anti-Akt (Santa Cruz Biotechnology), rabbit polyclonal anti-phospho-eNOS (Cell Signaling) overnight at 4 °C followed by washing and incubation with the corresponding horse radish peroxidase-labelled secondary antibody for 1 h at room temperature. After washing with TBS-T, membranes were incubated with ECL reagent and visualized (Amersham Pharmacia Biotech). Densitometry analysis using ImageJ© (version 1.32j, NIH) was used to quantify the protein signal.S7 […]
(typically 0.01 M phosphate buffered saline pH 7.4) so that the final DMSO concentration is 1 % and the final test compound concentrations are 1, 3, 10, 30 and 100 µM. The experiment is performed at 37 °C and each concentration is incubated in 7 replicate wells. The plates are incubated for 2 h at 37 °C before the absorbance is measured at 620nm. Nicardipine (pH dependent) and pyrene (pH independent) are included as control compounds. The solubility is estimated from the concentration of test compound that produces an increase in absorbance above vehicle control (1% DMSO in buffer).

On to `COC(=O)c1cc(OC[C@@H](COS(=O)(=O)[O-])OS(=O)(=O)[O-])ccc1OCC(COS(=O)(=O)[O-])OS(=O)(=O)[O-].[Na+].[Na+].[Na+].[Na+]` (mixture of isomers) [α-4, sodium 3-(4-((S)-2,3-bis(sulfonatooxy)propoxy)-2-(methoxycarbonyl)phenoxy)propane-1,2-diyl bis(sulfate)], for which, in data set [1], the half-life at 3 µM stood at 30.7 h and the microsomal CLint (as a rule, a measure of how fast metabolising enzymes remove a compound, apart from limits set by blood flow) at 3 µM was determined as 0.755 µL/min/mg. Also, in data set [2], the microsomal CLint at 3 µM stood at 9.56 µL/min/mg and the half-life at 3 µM was 2.42 h. Further, the ROS production in data set [3] was −28%. In addition, the eNOS phosphorylation entry in the data set with eNOS is “+342%”.
For the compound `O=C([O-])c1cc(OC[C@H](COS(=O)(=O)[O-])OS(=O)(=O)[O-])ccc1OCC(COS(=O)(=O)[O-])OS(=O)(=O)[O-].[Na+].[Na+].[Na+].[Na+].[Na+]` (mixture of isomers) [β-5, sodium 5-((R)-2,3-bis(sulfonatooxy)propoxy)-2-(2,3-bis(sulfonatooxy)propoxy)benzoate], in data set [1], the half-life at 3 µM was found to be 8.03 h and the microsomal CLint at 3 µM came to 2.88 µL/min/mg. For the same compound, in data set [2], the intrinsic clearance (microsomal CLint) at 3 µM was 0.649 µL/min/mg and the half-life at 3 µM was 35.7 h. Also, in data set [3], the ROS production is −29%. In the data set on eNOS, the eNOS phosphorylation result was “+318%”.
Consider `COC(=O)c1cc(OC[C@H](COS(=O)(=O)[O-])OS(=O)(=O)[O-])ccc1OCCCCOS(=O)(=O)[O-].[Na+].[Na+].[Na+]` [Compound R-10, sodium (R)-3-(3-(methoxycarbonyl)-4-(4-(sulfonatooxy)butoxy)phenoxy)propane-1,2-diyl bis(sulfate)], for which, in data set [1], the half-life at 0.75 h, 3 µM was 57.5 h and the microsomal CLint at 0.75 h, 3 µM came out at 0.402 µL/min/mg. In data set [2], the microsomal CLint at 0.75 h, 3 µM was 4.11 µL/min/mg and the half-life at 0.75 h, 3 µM is 5.63 h. Further, the ROS production in data set [3] is reported as −23%. In addition, the eNOS phosphorylation result with eNOS is listed as “+613%”.
In turn, `COC(=O)c1cc(OC[C@@H](COS(=O)(=O)[O-])OS(=O)(=O)[O-])ccc1OCCCCOS(=O)(=O)[O-].[Na+].[Na+].[Na+]` [Compound S-10, sodium (S)-3-(3-(methoxycarbonyl)-4-(4-(sulfonatooxy)butoxy)phenoxy)propane-1,2-diyl bis(sulfate)] showed a microsomal CLint at 0.75 h, 3 µM in data set [1] of 0.333 µL/min/mg. In addition, in data set [2], the microsomal CLint at 0.75 h, 3 µM was 12.8 µL/min/mg and the half-life at 0.75 h, 3 µM was 1.82 h. Further, in data set [3], the ROS production is reported as −39%. Moreover, in the data set with eNOS, the eNOS phosphorylation result is recorded as “+397%”.
